Earlier results as cited in US20220339103A1, “Lung-targeted corticosteroid treatment in viral respiratory disease, COVID-19 and ARDS (acute respiratory distress syndrome)” (Bodor Laboratories, Inc., priority 2021, published 2022).
Like-named read-outs stand apart in the source and are kept apart here.

Assays:
[1] = test system: cotton pellet granuloma; details: for ED50, anti-inflammatory activity in the cotton pellet granuloma test: subcutaneous cotton pellet granuloma test
[2] = test system: thymus; details: for TD50, thymolysis potency: subcutaneous cotton pellet granuloma test
[3] = biological target: T1, rat lung cytosol glucocorticoid receptors (Rattus norvegicus, UniProt P06536); details: compared with dexamethasone
T1 construct: from tissue; host or cells: rat lung cytosol
T1 sequence (P06536 1-795): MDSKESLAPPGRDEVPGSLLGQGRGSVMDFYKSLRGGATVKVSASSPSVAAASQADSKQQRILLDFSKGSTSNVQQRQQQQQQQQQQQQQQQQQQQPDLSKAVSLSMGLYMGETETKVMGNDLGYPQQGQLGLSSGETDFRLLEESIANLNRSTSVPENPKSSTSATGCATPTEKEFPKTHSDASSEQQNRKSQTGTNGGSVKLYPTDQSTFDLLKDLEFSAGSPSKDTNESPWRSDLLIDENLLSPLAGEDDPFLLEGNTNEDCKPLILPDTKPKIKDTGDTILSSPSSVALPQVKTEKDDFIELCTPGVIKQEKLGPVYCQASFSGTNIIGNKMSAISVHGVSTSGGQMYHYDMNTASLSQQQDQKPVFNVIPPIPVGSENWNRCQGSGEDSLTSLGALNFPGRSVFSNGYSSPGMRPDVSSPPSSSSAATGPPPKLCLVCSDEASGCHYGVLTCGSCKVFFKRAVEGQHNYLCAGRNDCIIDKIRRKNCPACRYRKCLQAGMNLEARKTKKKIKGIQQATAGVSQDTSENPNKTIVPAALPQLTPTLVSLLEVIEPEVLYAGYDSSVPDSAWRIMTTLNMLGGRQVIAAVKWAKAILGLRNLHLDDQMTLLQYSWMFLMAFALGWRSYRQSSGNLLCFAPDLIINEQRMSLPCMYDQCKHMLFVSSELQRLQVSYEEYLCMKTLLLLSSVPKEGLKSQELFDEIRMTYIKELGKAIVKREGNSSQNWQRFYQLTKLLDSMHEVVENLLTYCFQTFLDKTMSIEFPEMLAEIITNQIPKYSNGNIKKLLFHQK

[4] = test system: seasonal allergic rhinitis (SAR) to grass pollen; details: nasal spray, 100-800 μg, 645 SAR patients, vs PLA, p<0.03
[5] = biological target: Paraoxonase 1 (Homo sapiens, UniProt P27169)
[6] = human vasoconstrictor studies
[7] = test system: intraocular pressure; details: long-term use, 28 days or longer; LE 0.2% or 0.5%, prednisolone acetate 1%
[8] = 0.2% ophthalmic suspension, 159 patients treated >1 yr
[9] = test system: hypothalamic-pituitary axis; details: at any Loteprednol Etabonate use
[10] = test system: intraocular pressure; details: corneal transplant patients developing very high IOP
[11] = betamethasone 17α-valerate = 1.00

Sequence of Paraoxonase 1 (P27169 whole entry): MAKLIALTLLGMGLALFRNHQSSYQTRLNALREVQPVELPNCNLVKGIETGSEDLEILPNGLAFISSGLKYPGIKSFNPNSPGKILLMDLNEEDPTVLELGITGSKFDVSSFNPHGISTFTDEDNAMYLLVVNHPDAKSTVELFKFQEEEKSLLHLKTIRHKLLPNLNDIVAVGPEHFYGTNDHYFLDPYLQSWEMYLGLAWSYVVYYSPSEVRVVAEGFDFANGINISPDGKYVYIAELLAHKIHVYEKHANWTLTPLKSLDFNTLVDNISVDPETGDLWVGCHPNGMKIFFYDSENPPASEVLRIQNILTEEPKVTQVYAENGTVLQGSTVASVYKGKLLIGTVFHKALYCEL

CCCCC(=O)O[C@]1(C(=O)CO)[C@@H](C)C[C@H]2[C@@H]3CCC4=CC(=O)C=C[C@]4(C)[C@@]3(F)[C@@H](O)C[C@@]21C [Betamethasone 17α-valerate (BV) (0.12%), Betamethasone 17α-valerate]
Rel.pot., relative inflammatory effect compared to betamethasone [1, 11]: 1.00
ED50, anti-inflammatory activity in the cotton pellet granuloma test [1]: 84.8 μg/pellet
Rel.pot., relative timolysis effect [2, 11]: 1.00
TD50, thymolysis potency [2]: 212 μg/pellet

CCC(=O)O[C@]1(C(=O)CCl)[C@@H](C)C[C@H]2[C@@H]3CCC4=CC(=O)C=C[C@]4(C)[C@@]3(F)C(=O)C[C@@]21C [Clobetasone-17α-propi onate (KP) (0.1%), Clobetasone-17α-propi onate]
Rel.pot., relative inflammatory effect compared to betamethasone [1, 11]: 29.70
ED50, anti-inflammatory activity in the cotton pellet granuloma test [1]: 2.9 μg/pellet
Rel.pot., relative timolysis effect [2, 11]: 19.30
TD50, thymolysis potency [2]: 11 μg/pellet

CCCC(=O)O[C@]1(C(=O)CO)CC[C@H]2[C@@H]3CCC4=CC(=O)CC[C@]4(C)[C@H]3[C@@H](O)C[C@@]21C [Hydrocortisone 17α-butyrate (HB) (0.1%), Hydrocortisone 17α-butyrate]
Rel.pot., relative inflammatory effect compared to betamethasone [1, 11]: 0.70
ED50, anti-inflammatory activity in the cotton pellet granuloma test [1]: 121.0 μg/pellet
Rel.pot., relative timolysis effect ([2]; in vivo): 0.57
TD50, thymolysis potency [2]: 369 μg/pellet

CCOC(=O)O[C@]1(C(=O)OCCl)CC[C@H]2[C@@H]3CCC4=CC(=O)C=C[C@]4(C)[C@H]3[C@@H](O)C[C@@]21C [Loteprednol Etabonate, chloromethyl 17α-ethoxycarbonyloxy-11β-hydroxyandrosta-1,4-dien-3-one-17β-carboxylate]
Rel.pot., relative inflammatory effect compared to betamethasone ([1]; in vivo): 0.48
ED50, anti-inflammatory activity in the cotton pellet granuloma test [1]: 178.0 μg/pellet
corticosteroid receptor binding [3]: significantly higher than that of dexamethasone
change from baseline in two-week average reflective Total Nasal Symptom Score (TNSS) [4]: significantly more efficacious than PLA
hydrolyzing esterase [5]: hydrolyzed by the HDL-connected Paraoxonase 1
topical activity [6]: very good topical activity
Rel.pot., relative timolysis effect ([2]; in vivo): 0.02
TD50, thymolysis potency [2]: 10,000 μg/pellet
IOP elevation greater than or equal to 10 mmHg, share of subjects [7]: 0.64%
adverse effects of long-term use [8]: no reported adverse effects
suppression of the hypothalamic-pituitary axis [9]: no significant suppression
IOP after replacing prednisolone acetate with LE [10]: all IOP-s were returned to normal
